Measured values as given in patent publication US11066655B2, “RNA polymerase, methods of purification and methods of use” (President and Fellows of Harvard College, priority 2013, dated 2021).

B1: Syn5 RNAP: single subunit DNA-dependent RNA polymerase from marine cyanophage Syn5, amino acid sequence SEQ ID NO:23 (protein)
chain: MSFDLIARQLQRETEAAELARKRLQDARREANERSYASSNIESRKAIATFLDPIAQRIGERLFTLRRGTGAVDAAEVYKHLKNADHHHLALITMKTALDVLGKDPEPQIQQLTTAIGRNIQLELRLTYYAEENPELYKQASRFFHAGTGTRQKATVIKLKFNREGIEWDQWSRVTCHKVGQWLMLAMADVTGWIERATDRTSGGRKTKTRICYSREFLQHRDTILAAAEQLAFCQWPMLCPPIEWSNDHNGGYLSEQIRRVNPLIRKTGPLGTRKQGDIPLAMLNNLQGQAYKVNPEVLDIANHCYESNVTVGKFIRHAPLPVPPSPGEDCTEDQLTAYKRARREAEDFNAQISQKNWRTTEVMYVARKYADEASFWMPASFDYRGRVYFLNTALNPQGTDFDKALLYFAEEGPVNEWWLSFHVATTYGLDKETMVNRVQWARDNHELIDRIASDPVRHTEWHDADEPWCFLAACLEYKACVIDGTKQTSGLPIGIDATCSGLQHLAAMTRCGRTAALVNVTPTDKPADAYKTVAQASLKHLPKEQHEWITRKVTKRPVMCTPYGVTMSSARGYIRDQLVKDGHKEDLRSPGVLNGIVKAIFNEAIPEVIPGPVQVMAWLKRSAGQIIDRGDSTITWTTPSGFEVVQDLKKSKTYEVKTRIMGGARIKLQVGDGFTDEPDRDHHKSALAPNVVHSNDASLLHLTFAFWDKPFTVIHDCVLGRSCDMDQMGSDIRLHFAEMYKADVMQDWADQVGVELPVDLIKNTLDIDSVNQSLYFFS
modifications: Amino acid sequence of a cyanophage Syn5 RNAP

Tested on: DNA templates S5P-tDNAR or T7P-tDNAR
Experiment: Run-off synthesis of small RNA (tRNA^Arg), analytical scale, denaturing gel
Format: biochemical
Settings: for N+1 product in tRNA^Arg synthesis: 37° C., 22, 67, 200 nM enzyme; for N+1 product in run-off products: all temperatures (16° C., RT, 37° C.) and KCl concentrations examined
Source text: FIGS. 10A-10B depict a comparison of T7 and Syn5 RNA polymerase in run-off synthesis of small RNA. A) Effect of temperature and salt concentration on the RNA synthesis by T7 and Syn5 RNA polymerase. B) Similar as A) except that His-tagged T7 RNA polymerase was used.
FIGS. 11A-11B depict synthesis of tRNA^Arg by Syn5 and T7 RNA polymerase. A) Synthesis of tRNA^Arg at analytical scale by various amounts of Syn5 and T7 RNA polymerase. Using radioactively labeled CTP, the tRNA^Arg and N+1 product (as marked) produced by 22, 67, 200 nM Syn5 and T7 RNA polymerase at 37° C. are shown. […] The DNA encoding E. coli tRNA^ArgACG is directly downstream of a Syn5 or T7 promoter for the cognate RNA polymerase to synthesize run-off tRNA transcript. B) Synthesis of tRNA^Arg at preparative scale by Syn5 and T7 RNA polymerase. The sequencing gel is showing the analysis of the total RNA products by Syn5 and T7 RNAP at 37° C. in a 200 µl reaction. RNAs were purified by either ZYMO RNA clean kit or phenol/chloroform extraction followed by ethanol precipitation (P/C/E), as noted on top of the gel. The native tRNA^Arg (with modifications) overexpressed and purified from E. coli cells was used as a size marker. The two major bands in the total RNAs are tRNA^Arg and N+1 product as marked.
FIGS. 12A-12B depict synthesis of long run-off product and the incorporation of modified nucleotides by Syn5 and T7 RNA polymerase. A) On the linearized plasmid template as shown in the schematic, the production of RNA by either RNA polymerase (10 nM) was analyzed on agarose gel as lane 2. […] Lane 3 and 4 show the same RNA synthesis when CTP was replaced by 5mCTP and UTP by Ps-UTP, respectively. B) Incorporation of UTP or Ps-UTP into small RNA by 22, 67, and 200 nM Syn5 and T7 RNA polymerase as analyzed by denaturing TBE polyacrylamide gel. Full-length run-off product and the N+1 product are shown.
DNA templates for transcription assays were either plasmids or dsDNA fragments made of synthesized oligonucleotides. To test the processivity of Syn5 and T7 RNAP, a single Syn5 or T7 promoter plus 3 guanosine downstream of the promoter (Syn5 5′-ATTGGGCACCCGTAAGGG-3′ (SEQ ID NO:1) or T7 5′-[…]-3′) (SEQ ID NO:2) was inserted between the BamHI and XbaI sites of plasmid pUC19 to form pUC19-S5P or pUC19-T7P. The templates for run-off tRNA^Arg synthesis were formed by annealing of two complementary synthesized DNA oligos of which sequences are as following:
For the results shown in FIG. 10, reaction mixtures (10 μl) contained 40 mM Tris-HCl pH 8.0, 6 mM MgCl2, 2 mM spermidine, 10 mM DTT, 200 µm[…]P, GTP and UTP, 10 µM [[…]-^32P]CTP, 1.5 U/µl RNaseOUT™ recombinant ribonuclease inhibitor, 0.5 μM DNA templates S5P-tDNAR or T7P-tDNAR, 100 nM Syn5 or T7 RNAP, and various amount of KCl as noted in the figure. Reactions were carried out at various temperatures of 16° C., room temperature, or 37° C. for 30 min before adding of one unit of DNase I to each reaction mixture and an additional incubation of 15 min at 37° C. Reactions were then terminated by the addition of 4 µl of loading dye containing 95% formamide and 40 mM EDTA. Samples were then heated at 90° C. for 1 min and 4 µl sample each was loaded onto 15% TBE-Urea denaturing polyacrylamide gels. After electrophoresis, gels were dried and analyzed using a Fuji BAS 1000 Bioimaging Analyzer.
For the results shown in FIG. 11A, reaction mixtures (10 μl) containing 40 mM Tris-HCl pH 8.0, 6 mM MgCl2, 2 mM spermidine, 10 mM DTT, 200 µM[…]P, GTP and UTP, 10 µM [[…]-^32P]CTP, 1.5 U/µl RNaseOUT™ recombinant ribonuclease inhibitor, 0.5 μM DNA templates S5P-tDNAR or T7P-tDNAR, and various amount of Syn5 or T7 RNAP were incubated at 37° C. for 30 min before adding of one unit of DNase I to each reaction mixture and an additional incubation of 15 min at 37° C. Reactions were then terminated by the addition of 4 µl of loading dye containing 95% formamide and 40 mM EDTA. […]

| Molecule | run-off synthesis at high salt (160 mM KCl) | N+1 product in tRNA^Arg synthesis | N+1 product in run-off products | products when UTP replaced by Ps-UTP (small RNA, radioactively labeled CTP) | run-off synthesis at high salt (250 mM KCl) |
| --- | --- | --- | --- | --- | --- |
| T7 RNAP: RNA polymerase encoded by bacteriophage T7, from New England Biolabs [reference compound] | little activity | more N+1 product than the desired product | abundant amounts of the N+1 product | produced predominantly N+1 products | – |
| B1 | – | absence of N+1 product | did not contain detectable N+1 product band | – | produces significant amounts of product |
